Laboratory results: ChEMBL document CHEMBL1201862, “PubChem BioAssay data set” (2004)
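Test compounds were applied to cells in 96-well plates for 48 hours at 5 doses. GI50: concentration for 50% inhibition of growth.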 The source made the active and inactive calls. Cut-off read from the data, not from the text of the source: active = GI50 up to about 1.1 µM and inactive = higher.

Experiments:
Test in all cases: inhibition of tumour cell growth, NCI panel, 48 h
[1] = system: OVCAR-4
[2] = system: CCRF-CEM
[3] = system: SF-268
[4] = system: OVCAR-5
[5] = system: NCI/ADR-RES
[6] = system: K562
[7] = system: SW-620
[8] = system: SK-MEL-5
[9] = system: MDA-MB-231
[10] = system: NCI-H522
[11] = system: NCI-H226
[12] = system: OVCAR-3
[13] = system: UO-31
[14] = system: A549
[15] = system: ACHN
[16] = system: SN12C
[17] = system: SK-OV-3
[18] = system: SF-295
[19] = system: TK-10
[20] = system: UACC-62
[21] = system: IGROV-1
[22] = system: DU-145
[23] = system: SF-539
[24] = system: 786-0
[25] = system: MDA-N
[26] = system: HL-60
[27] = system: T47D
[28] = system: EKVX
[29] = system: NCI-H23
[30] = system: SR
[31] = system: HOP-92
[32] = system: RXF 393
[33] = system: Hs-578T
[34] = system: OVCAR-8
[35] = system: SNB-75
[36] = system: SNB-19
[37] = system: MCF7
[38] = system: Malme-3M
[39] = system: COLO 205
[40] = system: PC-3
[41] = system: M14
[42] = system: RPMI-8226
[43] = system: HCT-116
[44] = system: HOP-62
[45] = system: MOLT-4
[46] = system: NCI-H460
[47] = system: CAKI-1
[48] = system: SK-MEL-28
[49] = system: KM12
[50] = system: LOX IMVI
[51] = system: U-251
[52] = system: HT-29
[53] = system: HCT-15
[54] = system: UACC-257
[55] = system: HCC 2998
[56] = system: MDA-MB-435

CN(COC(=O)c1ccccc1)c1nc(N(C)COC(=O)c2ccccc2)nc(N(C)COC(=O)c2ccccc2)n1
GI50 [1]: 47.5 µM (inactive) | GI50 [2]: > 100 µM (inactive) | GI50 [3]: 21.8 µM (inactive) | GI50 [4]: > 100 µM (inactive) | GI50 [5]: 50.1 µM (inactive) | GI50 [6]: > 27.4 µM (inactive) | GI50 [7]: > 100 µM (inactive) | GI50 [8]: > 100 µM (inactive) | GI50 [9]: 15.7 µM (inactive) | GI50 [10]: 52.4 µM (inactive) | GI50 [11]: 30.4 µM (inactive) | GI50 [12]: > 84.1 µM (inactive) | GI50 [13]: > 83.9 µM (inactive) | GI50 [14]: > 100 µM (inactive) | GI50 [15]: 21.2 µM (inactive) | GI50 [16]: > 100 µM (inactive) | GI50 [17]: > 65.2 µM (inactive) | GI50 [18]: 23.9 µM (inactive) | GI50 [19]: 20.3 µM (inactive) | GI50 [20]: > 60.7 µM (inactive) | GI50 [21]: 28.8 µM (inactive) | GI50 [22]: > 100 µM (inactive) | GI50 [23]: 12.2 µM (inactive) | GI50 [24]: 11.4 µM (inactive) | GI50 [25]: > 100 µM (inactive) | GI50 [26]: > 100 µM (inactive) | GI50 [27]: 28.8 µM (inactive) | GI50 [28]: > 83.6 µM (inactive) | GI50 [29]: 41.5 µM (inactive) | GI50 [30]: > 100 µM (inactive) | GI50 [31]: 13.1 µM (inactive) | GI50 [32]: 7.83 µM (inactive) | GI50 [33]: 22.4 µM (inactive) | GI50 [34]: 39.4 µM (inactive) | GI50 [35]: > 94.6 µM (inactive) | GI50 [36]: 16.5 µM (inactive) | GI50 [37]: > 71.9 µM (inactive) | GI50 [38]: > 100 µM (inactive) | GI50 [39]: > 100 µM (inactive) | GI50 [40]: > 100 µM (inactive) | GI50 [41]: > 86.3 µM (inactive) | GI50 [42]: > 100 µM (inactive) | GI50 [43]: 44.5 µM (inactive) | GI50 [44]: 14.7 µM (inactive) | GI50 [45]: > 100 µM (inactive) | GI50 [46]: > 69.5 µM (inactive) | GI50 [47]: 57.7 µM (inactive) | GI50 [48]: > 100 µM (inactive) | GI50 [49]: > 100 µM (inactive) | GI50 [50]: > 100 µM (inactive) | GI50 [51]: 20.2 µM (inactive) | GI50 [52]: > 100 µM (inactive) | GI50 [53]: > 100 µM | GI50 [54]: > 91.4 µM (inactive) | GI50 [55]: > 100 µM (inactive) | GI50 [56]: > 100 µM (inactive)
